Experimental data reported in patent US20220402935A1, “HETEROCYCLIC COMPOUND” (FIMECS, INC., priority 2019, published 2022).
Where a name gives a salt, the structure may show the parent alone.

Assays:
IRAK-M [1] = target: T1, IRAK-M (Homo sapiens, UniProt Q9Y616); experiment: In vitro degradation activity of target protein (IRAK-M ELISA in THP1 cells); format: cell-based; set-up: host or cells: THP1 cells; settings: 24 hours, second symbol of cell, read-out: IRAK-M 50% degradation concentration (DC50 value)
T1 sequence (Q9Y616 1-596): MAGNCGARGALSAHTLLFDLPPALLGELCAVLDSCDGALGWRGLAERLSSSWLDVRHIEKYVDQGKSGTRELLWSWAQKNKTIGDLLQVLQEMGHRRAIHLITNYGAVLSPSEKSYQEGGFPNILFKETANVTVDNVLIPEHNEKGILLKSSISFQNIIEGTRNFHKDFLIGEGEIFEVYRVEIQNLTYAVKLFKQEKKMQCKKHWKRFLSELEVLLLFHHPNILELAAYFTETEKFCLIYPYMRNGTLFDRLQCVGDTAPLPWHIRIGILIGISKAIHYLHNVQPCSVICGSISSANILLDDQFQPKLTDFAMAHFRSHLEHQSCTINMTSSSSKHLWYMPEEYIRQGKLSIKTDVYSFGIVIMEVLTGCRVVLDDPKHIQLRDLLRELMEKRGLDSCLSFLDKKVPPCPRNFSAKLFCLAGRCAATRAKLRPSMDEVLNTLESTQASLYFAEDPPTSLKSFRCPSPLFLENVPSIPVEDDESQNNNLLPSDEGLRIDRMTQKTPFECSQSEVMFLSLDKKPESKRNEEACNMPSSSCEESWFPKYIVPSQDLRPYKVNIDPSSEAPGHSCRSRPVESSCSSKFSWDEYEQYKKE
Procedure: In vitro degradation activities of target protein of the example compounds were evaluated using Enzyme-linked immuno-sorbent assay (ELISA) by the following assay steps. THP1 cells (ATCC, TIB-202) were cultured in RPMI-1640 supplemented with 10% FBS, lx sodium pyruvate, lx HEPES, D-(+)-glucose and 1% penicillin/streptomycin. THP1 cells were seeded at a density of 1×10^6 cells/well in 24-well plate and treated with DMSO control or test compound, and then incubated for 24 hours. The cells were collected and lysed on ice for 30 minutes in lysis buffer (PBS containing 0.1% Triton X-100) containing a protease inhibitor cocktail (Roche, Cat #11836170001). The lysates were sonicated for 30 sec ON/30 sec OFF for ten cycles and centrifuged for 10 minutes at 13k rpm at 4° C. Protein concentrations were determined by the BCA assay (Sigma, Cat #QPBCA-1KT). The ELISA assay was performed using the Human IRAK3/IRAKM/IRAK-M ELISA Kit (LifeSpan BioSciences, Cat #LS-F35271), and the protein levels of IRAK-M were evaluated according to the kit protocol. As to the IRAK-M degradation rate of test compounds, protein degradation rate (%) when the concentration of the test compound is […] described as A≥75%, 50%≤B<75%, 25%≤C<50%, D<25%, or 50% degradation concentration (DC50 value) described as A<0.03 μM, 0.03 μM≤B<0.1 μM, 0.1 μM≤C<0.3 μM, 0.3 μM≤D<1 μM, is shown in the table below.

IRAK-M [2] = target: T1, IRAK-M; experiment: IRAK-M binding inhibitory activity (KINOMEscan active site-dependent competitive assay); set-up: purchased Eurofins Discover X; settings: for remaining binding at 1 µM: concentration of the test compound 1 μM, first symbol of cell, read-out: IRAK-M binding inhibition activity % Ctrl
In short: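 Active site-dependent competition binding assay (KINOMEscan) against human IRAK-M. Result expressed as % Ctrl = (compound signal − positive control signal)/(DMSO signal − positive control signal) × 100, where DMSO = 100% Ctrl and control compound = 0% Ctrl.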

[3] = target: T2, human XIAP_BIR3 domain purified protein (Homo sapiens, UniProt P98170); experiment: XIAP binding inhibitory activity (HTRF, b-Smac ligand); settings: second symbol of cell; read-out: XIAP binding inhibition IC50 value
T2 construct: purchased R & D
In short: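 HTRF competition between compound and C-terminally biotinylated Smac peptide AVPIAQK for His-tagged XIAP BIR3, both diluted to 90 nM before addition, in pH 7.5 HEPES/NaCl/BSA/Triton buffer. Eu-cryptate anti-His and streptavidin-XL665 added, ≥4 h at room temperature in the dark; inhibition % from 665/615 nm ratio versus no-compound wells.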

T2 sequence (P98170 252-356 limits assumed): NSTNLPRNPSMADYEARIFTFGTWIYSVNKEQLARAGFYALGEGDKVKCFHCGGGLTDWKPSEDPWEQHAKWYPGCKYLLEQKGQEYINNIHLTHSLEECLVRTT

Row | SMILES | DC50 (IRAK-M [1]) [nM] | IC50 (IRAK-M [2]; second symbol of cell, read-out: IRAK-M binding inhibition IC50 value) [nM] | IC50 [3] [nM] | remaining binding at 1 µM (IRAK-M [2]) [%]
1 | CN[C@@H](C)C(=O)N[C@H](C(=O)N1CCN(C(=O)c2c(C(=O)NCCOCCOCCOc3cc(CN4CCC(Oc5ccnc6ccsc56)CC4)on3)c3cc(F)c(F)cc3n2C)[C@@H](C)C1)C1CCCCC1 [Example 12, 2-((S)-4-((S)-2-cyclohexyl-2-((S)-2-(methylamino)propanamido)acetyl)-2-methylpiperazine-1-carbonyl)-5,6-difluoro-1-methyl-N-(2-(2-(2-((5-((4-(thieno[3,2-b]pyridin-7-yloxy)piperidin-1-yl)methyl)isoxazol-3-yl)oxy)ethoxy)ethoxy)ethyl)-1H-indole-3-carboxamide] | 100 to 300 |  | 300 to 3000 | < 25
2 | CN[C@@H](C)C(=O)N[C@H](C(=O)N1CCN(C(=O)c2cc3cc(F)c(F)cc3n2CC(=O)N(C)CCOCCOCCOCCOc2cc(CN3CCC(Oc4ccnc5ccsc45)CC3)on2)CC1)C1CCCCC1 [Example 24, (S)-N-((S)-1-Cyclohexyl-2-(4-(5,6-difluoro-1-(3-methyl-2-oxo-14-((5-((4-(thieno[3,2-b]pyridin-7-yloxy)piperidin-1-yl)methyl)isoxazol-3-yl)oxy)-6,9,12-trioxa-3-azatetradecyl)-1H-indole-2-carbonyl)piperazin-1-yl)-2-oxoethyl)-2-(methylamino)propanamide hydrochloride] | 300 to 1000 |  | 3000 to 30000 | < 25
3 | CN[C@@H](C)C(=O)N[C@H](C(=O)N1CCN(C(=O)c2cc3cc(F)c(F)cc3n2CC(=O)N2CCC[C@H]2COc2cc(CN3CCC(Oc4ccnc5ccsc45)CC3)on2)CC1)C1CCC(F)(F)CC1 [Example 48, (S)-N-((S)-2-(4-(5,6-difluoro-1-(2-oxo-2-((S)-2-(((5-((4-(thieno[3,2-b]pyridin-7-yloxy)piperidin-1-yl)methyl)isoxazol-3-yl)oxy)methyl)pyrrolidin-1-yl)ethyl)-1H-indole-2-carbonyl)piperazin-1-yl)-1-(4,4-difluorocyclohexyl)-2-oxoethyl)-2-(methylamino)propanamide] | 100 to 300 |  | 3000 to 30000 | 
4 | CN[C@@H](C)C(=O)N[C@H](C(=O)N1CCN(C(=O)c2cc3cc(F)c(F)cc3n2CC(=O)N2CCC[C@H]2COc2cc(CN3CCC(Oc4ccnc5ccsc45)CC3)on2)[C@@H](C)C1)C1CCC(F)(F)CC1 [Example 49, (S)-N-((S)-2-((S)-4-(5,6-difluoro-1-(2-oxo-2-((S)-2-(((5-((4-(thieno[3,2-b]pyridin-7-yloxy)piperidin-1-yl)methyl)isoxazol-3-yl)oxy)methyl)pyrrolidin-1-yl)ethyl)-1H-indole-2-carbonyl)-3-methylpiperazin-1-yl)-1-(4,4-difluorocyclohexyl)-2-oxoethyl)-2-(methylamino)propanamide] | 30 to 100 |  | 3000 to 30000 | 
5 | CN[C@@H](C)C(=O)N[C@H](C(=O)N1CCC[C@H]1c1nc(C(=O)c2cccc(OCCOCCOc3cc(CN4CCC(Oc5ccnc6ccsc56)CC4)on3)c2)cs1)C1CCCCC1 [Example 58, (S)-N-((S)-1-cyclohexyl-2-oxo-2-((S)-2-(4-(3-(2-(2-((5-((4-(thieno[3,2-b]pyridin-7-yloxy)piperidin-1-yl)methyl)isoxazol-3-yl)oxy)ethoxy)ethoxy)benzoyl)thiazol-2-yl)pyrrolidin-1-yl)ethyl)-2-(methylamino)propanamide] |  |  | < 300 | < 25
6 | CN[C@@H](C)C(=O)N[C@H](C(=O)N1CCC[C@H]1c1nc(C(=O)c2cccc(OCCOCCOCCOCCOc3cc(CN4CCC(Oc5ccnc6ccsc56)CC4)on3)c2)cs1)C1CCCCC1 [Example 60, (S)-N-((S)-1-cyclohexyl-2-oxo-2-((S)-2-(4-(3-(2-(2-(2-(2-((5-((4-(thieno[3,2-b]pyridin-7-yloxy)piperidin-1-yl)methyl)isoxazol-3-yl)oxy)ethoxy)ethoxy)ethoxy)ethoxy)benzoyl)thiazol-2-yl)pyrrolidin-1-yl)ethyl)-2-(methylamino)propanamide] |  |  | < 300 | < 25

The remaining lines, values ahead:

Row | DC50 (IRAK-M [1]) [nM] | IC50 (IRAK-M [2]; second symbol of cell, read-out: IRAK-M binding inhibition IC50 value) [nM] | IC50 [3] [nM] | remaining binding at 1 µM (IRAK-M [2]) [%] | SMILES
7 | 300 to 1000 | 300 to 1000 | 300 to 3000 |  | CN[C@@H](C)C(=O)N[C@H](C(=O)N1CCN(C(=O)c2c(C(=O)N(C)CCOCCOCCOc3cc(CN4CCC(Oc5ccnc6ccsc56)CC4)on3)c3cc(F)c(F)cc3n2C)CC1)C1CCCCC1 [Example 1, 2-(4-((S)-2-Cyclohexyl-2-((S)-2-(methylamino)propanamido)acetyl)piperazine-1-carbonyl)-5,6-difluoro-N,1-dimethyl-N-(2-(2-(2-((5-((4-(thieno[3,2-b]pyridin-7-yloxy)piperidin-1-yl)methyl)isoxazol-3-yl)oxy)ethoxy)ethoxy)ethyl)-1H-indole-3-carboxamide hydrochloride]
8 |  |  | < 300 | 25 to 50 | CN[C@@H](C)C(=O)N[C@H](C(=O)N1CCN(C(=O)c2ccc3c(c2)cc(C)n3CCOCCOc2cc(CN3CCC(Oc4ccnc5ccsc45)CC3)on2)CC1)C1CCCCC1 [Example 54, (S)-N-((S)-1-cyclohexyl-2-(4-(2-methyl-1-(2-(2-((5-((4-(thieno[3,2-b]pyridin-7-yloxy)piperidin-1-yl)methyl)isoxazol-3-yl)oxy)ethoxy)ethyl)-1H-indole-5-carbonyl)piperazin-1-yl)-2-oxoethyl)-2-(methylamino)propanamide]
9 |  |  | 300 to 3000 | 25 to 50 | CN[C@@H](C)C(=O)N[C@H](C(=O)N1CCN(C(=O)c2ccc3c(c2)cc(C)n3CCOCCOCCOc2cc(CN3CCC(Oc4ccnc5ccsc45)CC3)on2)CC1)C1CCCCC1 [Example 55, (S)-N-((S)-1-cyclohexyl-2-(4-(2-methyl-1-(2-(2-(2-((5-((4-(thieno[3,2-b]pyridin-7-yloxy)piperidin-1-yl)methyl)isoxazol-3-yl)oxy)ethoxy)ethoxy)ethyl)-1H-indole-5-carbonyl)piperazin-1-yl)-2-oxoethyl)-2-(methylamino)propanamide]
10 |  |  | 300 to 3000 | 50 to 75 | CN[C@@H](C)C(=O)N[C@H](C(=O)N1CCN(C(=O)c2ccc3c(c2)cc(C)n3CCOCCOCCOc2cc(CN3CCC(Oc4ccnc5ccsc45)CC3)on2)C[C@H]1C)C1CCCCC1 [Example 56, (S)-N-((S)-1-cyclohexyl-2-((R)-2-methyl-4-(2-methyl-1-(2-(2-(2-((5-((4-(thieno[3,2-b]pyridin-7-yloxy)piperidin-1-yl)methyl)isoxazol-3-yl)oxy)ethoxy)ethoxy)ethyl)-1H-indole-5-carbonyl)piperazin-1-yl)-2-oxoethyl)-2-(methylamino)propanamide]
11 |  |  | 300 to 3000 | 25 to 50 | CN[C@@H](C)C(=O)N[C@H](C(=O)N1CCN(C(=O)c2ccc3c(c2)c(F)c(C)n3CCOCCOCCOc2cc(CN3CCC(Oc4ccnc5ccsc45)CC3)on2)CC1)C1CCCCC1 [Example 57, (S)-N-((S)-1-cyclohexyl-2-(4-(3-fluoro-2-methyl-1-(2-(2-(2-((5-((4-(thieno[3,2-b]pyridin-7-yloxy)piperidin-1-yl)methyl)isoxazol-3-yl)oxy)ethoxy)ethoxy)ethyl)-1H-indole-5-carbonyl)piperazin-1-yl)-2-oxoethyl)-2-(methylamino)propanamide]
